The results in this text go back to patent US20230203056A1, “HETEROCYCLIC COMPOUNDS” (Hoffmann-La Roche Inc., priority 2020, published 2023).

pIC50: −log10 of the molar value.

This assay has as its target T1, MAGL (Homo sapiens, UniProt Q99685).
T1 sequence (Q99685 1-303): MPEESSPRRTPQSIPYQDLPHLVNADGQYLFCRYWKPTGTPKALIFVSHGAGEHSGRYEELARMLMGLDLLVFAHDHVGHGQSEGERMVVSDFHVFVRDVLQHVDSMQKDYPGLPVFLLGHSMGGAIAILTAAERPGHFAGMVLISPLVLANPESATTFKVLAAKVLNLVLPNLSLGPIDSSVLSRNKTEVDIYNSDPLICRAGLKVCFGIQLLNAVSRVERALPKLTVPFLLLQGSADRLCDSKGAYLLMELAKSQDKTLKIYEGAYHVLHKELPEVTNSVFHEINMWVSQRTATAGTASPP
Nature of the assay: 2-AG assay: MAGL inhibitory activity, hydrolysis of 2-arachidonoylglycerol to arachidonic acid followed by mass spectrometry. The format is biochemical. Conditions: 50 pM MAGL, 8 μM 2-arachidonoylglycerol, 15 min preincubation, 30 min incubation at RT. The procedure: Compounds were profiled for MAGL inhibitory activity by determining the enzymatic activity by following the hydrolysis of the natural substrate 2-arachidonoylglycerol resulting in arachidonic acid, which can be followed by mass spectrometry. This assay is hereinafter abbreviated “2-AG assay”.
The 2-AG assay was carried out in 384 well assay plates (PP, Greiner Cat #784201) in a total volume of 20 μL. Compound dilutions were made in 100% DMSO (VWR Chemicals 23500.297) in a polypropylene plate in 3-fold dilution steps to give a final concentration range in the assay from 12.5 μM to 0.8 pM. 0.25 μL compound dilutions (100% DMSO) were added to 9 μL MAGL in assay buffer (50 mM TRIS (GIBCO, 15567-027), 1 mM EDTA (Fluka, 03690-100 mL), 0.01% (v/v) Tween. After shaking, the plate was incubated for 15 min at RT. To start the reaction, 10 μL 2-arachidonoylglycerol in assay buffer was added. The final concentrations in the assay was 50 pM MAGL and 8 μM 2-arachidonoylglyerol. After shaking and 30 min incubation at RT, the reaction was quenched by the addition of 40 μL of acetonitrile containing 4 μM of d8-arachidonic acid. The amount of arachidonic acid was traced by an online SPE system (Agilent Rapidfire) coupled to a triple quadrupole mass spectrometer (Agilent 6460). A C18 SPE cartridge (G9205A) was used in an acetonitrile/water liquid setup. The mass spectrometer was operated in negative electrospray mode following the mass transitions 303.1→259.1 for arachidonic acid and 311.1→267.0 for d8-arachidonic acid. The activity of the compounds was calculated based on the ratio of intensities [arachidonic acid/d8-arachidonic acid].
One may read the pIC50 as the IC50 on a negative log10 scale, so that one unit is a factor of ten. Read a low pIC50 as a high IC50. Take `O=C(N1CC(OCc2ccc(C(F)(F)F)cc2F)C1)N1C[C@@H]2CCc3cn[nH]c3[C@@H]2C1` (racemic) [Example 1, [3-[[2-Fluoro-4-(trifluoromethyl)phenyl]methoxy]azetidin-1-yl]-[rac-(5aR,8aS)-4,5,5a,6,8,8a-hexahydro-1H-pyrrolo[3,4-g]indazol-7-yl]methanone]: the pIC50 is 8.10.

`O=C(N1CC(OCc2ccc(C(F)(F)F)cc2F)C1)N1C[C@@H]2COc3cn[nH]c3[C@@H]2C1` (racemic) [Example 2, [3-[[2-Fluoro-4-(trifluoromethyl)phenyl]methoxy]azetidin-1-yl]-[rac-(1S,9R)-7-oxa-3,4,11-triazatricyclo[7.3.0.0^2,6]dodeca-2(6),4-dien-1l-yl]methanone]: the pIC50 was 7.17. As for `O=C(N1C[C@@H]2COc3cn[nH]c3[C@@H]2C1)N1CC2(CC(Cc3ccc(F)cc3F)C2)C1` (single isomer, unassigned) [Example 5, (−)- or (+)-[6-[(2,4-Difluorophenyl)methyl]-2-azaspiro[3.3]heptan-2-yl]-[(1S,9R)-7-oxa-3,4,11-triazatricyclo[7.3.0.0^2,6]dodeca-2(6),4-dien-1l-yl]methanone], the figure is 6.31; as for `O=C(N1C[C@H]2COc3cn[nH]c3[C@H]2C1)N1CC2(CC(Cc3ccc(F)cc3F)C2)C1` (single isomer, unassigned) [Example 6, (+)- or (−)-[6-[(2,4-Difluorophenyl)methyl]-2-azaspiro[3.3]heptan-2-yl]-[(1R,9S)-7-oxa-3,4,11-triazatricyclo[7.3.0.0^2,6]dodeca-2(6),4-dien-11-yl]methanone], 8.05. As for `O=C(N1CC(OCc2ccc(C(F)(F)F)cc2F)C1)N1C[C@@H]2CCc3nn[nH]c3[C@@H]2C1` (single isomer, unassigned) [Example 7, (−)- or (+)-[3-[[2-Fluoro-4-(trifluoromethyl)phenyl]methoxy]azetidin-1-yl]-[(5aR,8aS)-4,5,5a,6,8,8a-hexahydro-1H-pyrrolo[3,4-e]benzotriazol-7-yl]methanone], the figure is 7.30; as for `O=C(N1CC(OCc2ccc(C(F)(F)F)cc2F)C1)N1C[C@H]2CCc3nn[nH]c3[C@H]2C1` (single isomer, unassigned) [Example 8, (+)- or (−)-[3-[[2-Fluoro-4-(trifluoromethyl)phenyl]methoxy]azetidin-1-yl]-[(5aS,8aR)-4,5,5a,6,8,8a-hexahydro-1H-pyrrolo[3,4-e]benzotriazol-7-yl]methanone], 6.28; as for `O=C(N1CC(OCc2ccc(C(F)(F)F)cc2F)C1)N1C[C@@H]2OCc3nn[nH]c3[C@@H]2C1` (single isomer, unassigned) [Example 9, (−)- or (+)-[3-[[2-Fluoro-4-(trifluoromethyl)phenyl]methoxy]azetidin-1-yl]-[(1S,9R)-8-oxa-3,4,5,11-tetrazatricyclo[7.3.0.02,6]dodeca-2(6),4-dien-11-yl]methanone], 5.57. As for `O=C(N1CC(OCc2ccc(C(F)(F)F)cc2F)C1)N1C[C@@H]2c3[nH]nnc3CO[C@@H]2C1` (single isomer, unassigned) [Example 10, (+)- or (−)-[3-[[2-Fluoro-4-(trifluoromethyl)phenyl]methoxy]azetidin-1-yl]-[(1R,9S)-8-oxa-3,4,5,11-tetrazatricyclo[7.3.0.02,6]dodeca-2(6),4-dien-1l-yl]methanone], the figure is 5.91; as for `O=C(N1CC(c2ccc(C3(C(F)(F)F)CC3)cc2)C1)N1C[C@@H]2COc3cn[nH]c3[C@@H]2C1` [Example 3, (−)- or (+)-[(1S,9R)-7-Oxa-3,4,11-triazatricyclo[7.3.0.0^2,6]dodeca-2(6),4-dien-11-yl]-[3-[4-[1-(trifluoromethyl)cyclopropyl]phenyl]azetidin-1-yl]methanone], 7.89. On to `O=C(N1CC(c2ccc(C3(C(F)(F)F)CC3)cc2)C1)N1C[C@H]2COc3cn[nH]c3[C@H]2C1` [Example 4, (+)- or (−)-[(1R,9S)-7-Oxa-3,4,11-triazatricyclo[7.3.0.0^2,6]dodeca-2(6),4-dien-11-yl]-[3-[4-[1-(trifluoromethyl)cyclopropyl]phenyl]azetidin-1-yl]methanone], for which the pIC50 is 6.04.
